Results on 21 compounds are retold here after patent US20260248783A1 (ASCLETIS BIOSCIENCE CO., LTD., priority 2021, published 2026).

pIC50: −log10 of the molar value.

In the assay the target is T1, PD-1/PD-L1 (Homo sapiens, UniProt Q9NZQ7).
T1 construct: Recombinant human PD-L1 protein (19-238) with a Histag at the C-terminus; purchased AcroBiosystems PD1-H5229 (PD-L1); PD1-H5257 (PD-1)
T1 sequence (Q9NZQ7 19-238): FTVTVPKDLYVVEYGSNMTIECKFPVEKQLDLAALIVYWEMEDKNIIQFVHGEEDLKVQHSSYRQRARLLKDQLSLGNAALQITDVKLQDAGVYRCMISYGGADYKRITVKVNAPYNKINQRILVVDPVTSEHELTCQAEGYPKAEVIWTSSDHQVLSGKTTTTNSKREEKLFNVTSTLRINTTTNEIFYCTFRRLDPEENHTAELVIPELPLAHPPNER
Nature of the assay: PD-1/PD-L1 Homogeneous Time-Resolved Fluorescence (HTRF) Binding Assay. Particulars: PD-1/PD-L1 HTRF activity; 3 nM PD1, 10 nM PD-L1, 25° C. On the procedure: Example 107. PD-1/PD-L1 Homogeneous Time-Resolved Fluorescence (HTRF) Binding Assay
The assays were conducted in a standard black 384-well polystyrene plate with a final volume of 20 μL. Inhibitors were first serially diluted in DMSO and then added to the plate wells before the addition of other reaction components. The final concentration of DMSO in the assay was 1%. The assays were carried out at 25° C. in the PBS buffer (pH 7.4) with 0.05% Tween-20 and 0.1% BSA. Recombinant human PD-L1 protein (19-238) with a Histag at the C-terminus was purchased from AcroBiosystems (PD1-H5229). Recombinant human PD-1 protein (25-167) with Fe tag at the C-terminus was also purchased from AcroBiosystems (PD1-H5257). PD-L1 and PD-1 proteins were diluted in the assay buffer and 10 μL was added to the plate well. Plates were centrifuged and proteins were preincubated with inhibitors for 40 minutes. The incubation was followed by the addition of 10 μL of HTRF detection buffer supplemented with Europium cryptate-labeled anti-human IgG (PerkinElmer-AD0212) specific for Fe and anti-His antibody conjugated to SureLight®—Allophycocyanin (APC, PerkinElmer-AD0059H). After centrifugation, the plate was incubated at 25° C. for 60 min. before reading on a PHERAstar FS plate reader (665 nm/620 nm ratio). Final concentrations in the assay were […], 10 nM PD-L1, 1 nM europium anti-human IgG and 20 nM anti-His-Allophycocyanin. IC50 determination was performed by fitting the curve of percent control activity versus the log of the inhibitor concentration.
The term pIC50 denotes the IC50 on a negative log10 scale, so that one unit is a factor of ten. A low value points to a large IC50. For `Cc1cn2nc(-c3cccc(-c4cccc(-c5cc6c(=O)n(CCNC7(C(=O)O)COC7)c(C)cn6n5)c4Cl)c3Cl)cc2c(=O)n1CCNC1(C(=O)O)COC1` [Compound 82, 3,3′-((((2,2′-dichloro-[1,1′-biphenyl]-3,3′-diyl)bis(6-methyl-4-oxopyrazolo[1,5-a]pyrazine-2,5(4H)-diyl))bis(ethane-2,1-diyl))bis(azanediyl))bis(oxetane-3-carboxylic acid)], the pIC50 is not above 7.00.
With `O=C1CC[C@@H](Cn2c(C3CC3)nn3cc(-c4cccc(-c5cccc(-c6cc7c(=O)n(C[C@@H]8CCC(=O)N8)c(C8CC8)nn7c6)c5Cl)c4Cl)cc3c2=O)N1` [Compound 34, 6,6′-(2,2′-dichloro-[1,1′-biphenyl]-3,3′-diyl)bis(2-cyclopropyl-3-(((S)-5-oxopyrrolidin-2-yl)methyl)pyrrolo[2,1-f][1,2,4]triazin-4(3H)-one)] the figure was 7.00 to 8.00; with `Cc1cn2nc(-c3cccc(-c4cccc(-c5cc6c(=O)n(CCN7CCOCC7C(=O)O)c(C)cn6n5)c4Cl)c3Cl)cc2c(=O)n1CCN1CCOCC1C(=O)O` (stereo not drawn) [Compound 86, 4,4′-(((2,2′-dichloro-[1,1′-biphenyl]-3,3′-diyl)bis(6-methyl-4-oxopyrazolo[1,5-a]pyrazine-2,5(4H)-diyl))bis(ethane-2,1-diyl))bis(morpholine-3-carboxylic acid)], not above 7.00; with `O=C1CCC(Cn2cnn3c(F)c(-c4cccc(-c5cccc(-c6cc7c(=O)n(CC8CCC(=O)N8)cnn7c6F)c5Cl)c4Cl)cc3c2=O)N1` (stereo not drawn) [Compound 3, 6,6′-(2,2′-dichloro-[1,1′-biphenyl]-3,3′-diyl)bis(7-fluoro-3-((5-oxopyrrolidin-2-yl)methyl)pyrrolo[2,1-f][1,2,4]triazin-4(3H)-one)], more than 8.00.
With `CN1CCN(CCn2cnn3cc(-c4cccc(-c5cccc(-c6cc7c(=O)n(CCN8CCN(C)CC8)cnn7c6)c5Cl)c4Cl)cc3c2=O)CC1` [Compound 26, 6,6′-(2,2′-dichloro-[1,1′-biphenyl]-3,3′-diyl)bis(3-(2-(4-methylpiperazin-1-yl)ethyl)pyrrolo[2,1-f][1,2,4]triazin-4(3H)-one)] the figure was not above 7.00.
The result for `O=C1CC[C@@H](Cn2ccn3cc(-c4cccc(-c5cccc(-c6cc7c(=O)n(C[C@@H]8CCC(=O)N8)ccn7c6)c5Cl)c4Cl)cc3c2=O)N1` [Compound 5, 7,7′-(2,2′-dichloro-[1,1′-biphenyl]-3,3′-diyl)bis(2-(((S)-5-oxopyrrolidin-2-yl)methyl)pyrrolo[1,2-a]pyrazin-1(2H)-one)] reads 7.00 to 8.00; that for `Cn1c(CNCCO)cn2nc(-c3cccc(-c4cccc(-c5cc6c(=O)n(C)c(CNCCO)cn6n5)c4Cl)c3Cl)cc2c1=O` [Compound 42, 2,2′-(2,2′-dichloro-[1,1′-biphenyl]-3,3′-diyl)bis(6-(((2-hydroxyethyl)amino)methyl)-5-methylpyrazolo[1,5-a]pyrazin-4(5H)-one)], more than 8.00.
In turn, `Cc1cn2nc(-c3cccc(-c4cccc(-c5cc6c(=O)n(C(C)CN[C@@H](CO)C(=O)O)c(C)cn6n5)c4Cl)c3Cl)cc2c(=O)n1C(C)CN[C@@H](CO)C(=O)O` (stereo partly drawn) [Compound 94, (2S,2'S)-2,2′-((((2,2′-dichloro-[1,1′-biphenyl]-3,3′-diyl)bis(6-methyl-4-oxopyrazolo[1,5-a]pyrazine-2,5(4H)-diyl))bis(propane-2,1-diyl))bis(azanediyl))bis(3-hydroxypropanoic acid)] gave a pIC50 of 7.00 to 8.00.
In turn, `O=C1CC[C@@H](Cn2cnc3sc(-c4cccc(-c5cccc(-c6cc7c(=O)n(C[C@@H]8CCC(=O)N8)cnc7s6)c5Cl)c4Cl)cc3c2=O)N1` [Compound 2, 6,6′-(2,2′-dichloro-[1,1′-biphenyl]-3,3′-diyl)bis(3-(((S)-5-oxopyrrolidin-2-yl)methyl)thieno[2,3-d]pyrimidin-4(3H)-one)] had a negative logarithm of the IC50 (pIC50) of 7.00 to 8.00.
With `O=c1[nH]c(C[C@@H]2CCCN2)nn2cc(-c3cccc(-c4cccc(-c5cc6c(=O)[nH]c(C[C@@H]7CCCN7)nn6c5)c4Cl)c3Cl)cc12` [Compound 75, 6′-(2,2′-dichloro-[1,1′-biphenyl]-3,3′-diyl)bis(2-(((S)-pyrrolidin-2-yl)methyl)pyrrolo[2,1-f][1,2,4]triazin-4(3H)-one)] the figure was 7.00 to 8.00; with `Cc1cn2cc(-c3cccc(-c4cccc(-c5cc6c(=O)n(C[C@@H]7CCC(=O)N7)c(C)cn6c5)c4Cl)c3Cl)cc2c(=O)n1C[C@@H]1CCC(=O)N1` [Compound 30, 7,7′-(2,2′-dichloro-[1,1′-biphenyl]-3,3′-diyl)bis(3-methyl-2-(((S)-5-oxopyrrolidin-2-yl)methyl)pyrrolo[1,2-a]pyrazin-1(2H)-one)], more than 8.00.
On to `Cc1cn2nc(-c3cccc(-c4cccc(-c5cc6c(=O)n(CCN7CCCC7CCO)c(C)cn6n5)c4Cl)c3Cl)cc2c(=O)n1CCN1CCCC1CCO` (stereo not drawn) [Compound 93, 2,2′-(2,2′-dichloro-[1,1′-biphenyl]-3,3′-diyl)bis(5-(2-(2-(2-hydroxyethyl)pyrrolidin-1-yl)ethyl)-6-methylpyrazolo[1,5-a]pyrazin-4(5H)-one)], for which the pIC50 is 7.00 to 8.00.
With “(2S,2'S,4R,4′R)-1,1′-(((2,2′-dichloro-[1,1′-biphenyl]-3,3′-diyl)bis(3-methyl-1-oxopyrrolo[1,2-a]pyrazine-7,2(1H)-diyl))bis(ethane-2,1-diyl))bis(4-hydroxypyrrolidine-2-carboxylic acid) [Compound 59]” the figure was not above 7.00; with `Cn1c(CCN[C@@H](CO)C(=O)O)cn2nc(-c3cccc(-c4cccc(-c5cc6c(=O)n(C)c(CCN[C@@H](CO)C(=O)O)cn6n5)c4Cl)c3Cl)cc2c1=O` [Compound 71, (2S,2'S)-2,2′-((((2,2′-dichloro-[1,1′-biphenyl]-3,3′-diyl)bis(5-methyl-4-oxo-4,5-dihydropyrazolo[1,5-a]pyrazine-2,6-diyl))bis(ethane-2,1-diyl))bis(azanediyl))bis(3-hydroxypropanoic acid)], more than 8.00.
With `Cc1c(-c2cc3c(=O)n(C[C@@H]4CCC(=O)N4)cnn3c2)cccc1-c1cccc(-c2cc3c(=O)n(C[C@@H]4CCC(=O)N4)cnn3c2)c1C` [Compound 17, 6,6′-(2,2′-dimethyl-[1,1′-biphenyl]-3,3′-diyl)bis(3-(((S)-5-oxopyrrolidin-2-yl)methyl)pyrrolo[2,1-f][1,2,4]triazin-4(3H)-one)] the figure was more than 8.00; with `CC(=O)NCCNCCn1c(C)cn2cc(-c3cccc(-c4cccc(-c5cc6c(=O)n(CCNCCNC(C)=O)c(C)cn6c5)c4Cl)c3Cl)cc2c1=O` [Compound 54, N,N′-(((((2,2′-dichloro-[1,1′-biphenyl]-3,3′-diyl)bis(3-methyl-1-oxopyrrolo[1,2-a]pyrazine-7,2(1H)-diyl))bis(ethane-2,1-diyl))bis(azanediyl))bis(ethane-2,1-diyl))diacetamide], more than 8.00.
The result for `Cc1cn2nc(-c3cccc(-c4cccc(-c5cc6c(=O)n(CCN7CCCCC7C(=O)O)c(C)cn6n5)c4Cl)c3Cl)cc2c(=O)n1CCN1CCCCC1C(=O)O` (stereo not drawn) [Compound 79, 1,1′-(((2,2′-dichloro-[1,1′-biphenyl]-3,3′-diyl)bis(6-methyl-4-oxopyrazolo[1,5-a]pyrazine-2,5(4H)-diyl))bis(ethane-2,1-diyl))bis(piperidine-2-carboxylic acid)] reads 7.00 to 8.00.
On to `CC(=O)NCCNCc1cn2cc(-c3cccc(-c4cccc(-c5cc6c(=O)[nH]c(CNCCNC(C)=O)cn6c5)c4Cl)c3Cl)cc2c(=O)[nH]1` [Compound 72, N,N′-(((((2,2′-dichloro-[1,1′-biphenyl]-3,3′-diyl)bis(1-oxo-1,2-dihydropyrrolo[1,2-a]pyrazine-7,3-diyl))bis(methylene))bis(azanediyl))bis(ethane-2,1-diyl))diacetamide], for which the pIC50 is 7.00 to 8.00.
The result for `Cc1nn2cc(-c3cccc(-c4cccc(-c5cc6c(=O)n(C[C@@H]7CCC(=O)N7)c(C)nn6c5)c4Cl)c3Cl)cc2c(=O)n1C[C@@H]1CCC(=O)N1` [Compound 35, 6,6′-(2,2′-dichloro-[1,1′-biphenyl]-3,3′-diyl)bis(2-methyl-3-(((S)-5-oxopyrrolidin-2-yl)methyl)pyrrolo[2,1-f][1,2,4]triazin-4(3H)-one)] reads more than 8.00; that for `O=C1CC[C@@H](Cn2c(C3CC3)cn3cc(-c4cccc(-c5cccc(-c6cc7c(=O)n(C[C@@H]8CCC(=O)N8)c(C8CC8)cn7c6)c5Cl)c4Cl)cc3c2=O)N1` [Compound 31, 7,7′-(2,2′-dichloro-[1,1′-biphenyl]-3,3′-diyl)bis(3-cyclopropyl-2-(((S)-5-oxopyrrolidin-2-yl)methyl)pyrrolo[1,2-a]pyrazin-1(2H)-one)], 7.00 to 8.00; that for `O=C1CC[C@@H](Cn2ncn3cc(-c4cccc(-c5cccc(-c6cc7c(=O)n(C[C@@H]8CCC(=O)N8)ncn7c6)c5Cl)c4Cl)cc3c2=O)N1` [Compound 11, 7,7′-(2,2′-dichloro-[1,1′-biphenyl]-3,3′-diyl)bis(2-(((S)-5-oxopyrrolidin-2-yl)methyl)pyrrolo[1,2-d][1,2,4]triazin-1(2H)-one)], not above 7.00.
